Test [1] concerns transiently transfected TGFβ-responsive reporter. Put plainly: transient transfection luciferase assay, p3TPLux. The class given is cell-based, mink. How it is done: LUCIFERASE ASSAYS: Our transient transfection luciferase assay was described previously by us (Stockwell et al., Chem Biol 5:385, 1998). Briefly, 100,000 Mv1Lu mink lung epithelial cells were transiently transfected in 12-well dishes with 400 ng p3TPLux or pNFkB-Lux, with or without 50 ng pFC-MEKK, in 300 μL minimal essential medium with non-essential amino acids. The DEAE-dextran/chloroquine/DMSO methods was used for transfection (Stockwell et al., Chem Biol 6:71, 1999). After cell lysis in 120 μL lysis buffer, a Beckman LS 6500 liquid scintillation counter was used in single photon mode to quantitate luminescence. For detection of luciferase activity in 6F cells (including the primary screen), 20,000 6F cells were seeded in 50 μL of 10% mink medium in each well of a white 384-well plate (Nalge Nune International; Naperville, Ill.; cat#164610) using a Multidrop 384 liquid dispenser (Lab Systems; Helsinki, Finland). After 16 hours, medium was removed using a 24 channel wand (V&P Scientific, Inc.; San Diego, Calif.; cat#VP 186L), the cells were washed with 75 μL of 0.2% mink medium (containing 0.2% FBS), and reagents were added in 40 μL of 0.2% medium. For the primary screen, reagents were added by pin transfer using 384 polypropylene pin arrays (Matrix Technologies; Hudson, N.H.). After 24 hours, the cells were cooled on ice and washed twice with 75 μL Hanks Balanced Salt Solution (HBSS; GibcoBRL; cat#24020-117). Then 20 μL lysis buffer (25 mM glycylglycine (Sigma; cat#E-0396), 1% Triton X-100 (Sigma; cat#T-9284), 1 mM dithiothreitol (DTT; Sigma; cat#D-5545), 1 mM phenylmethylsulfonyl fluoride (PMSF; Sigma; cat#P-7626)) was added to each well with a Multidrop. After incubating the cells for five minutes on ice, 20 μL of ATP/luciferin solution was added (25 mM glycylglycine pH 7.8, 15 mM MgSO4, 4 mM EGTA, 6.25 mM K2HPO4 (Sigma; cat#P5504) pH 7.8, 5 mM DTT, 75 μM D-luciferin (Sigma, cat# L-9504, 2 mM ATP (Sigma; cat#A-7699)). Light output was immediately measured with an Analyst 384-well platereader (LJL), with 0.5 second counting time per well.

Test [2] deals with Mv1Lu mink lung epithelial cells. As to the kind of experiment: 6144 well BrdU cytoblot. The class given is cell-based. The conditions noted are these: approximately 6000 nanowells. Here is the method:
FIG. 4. BrdU incorporation is detected in 6144 well plates with a cytoblot. (a) The actual size of the wells of a 6144 well plate (nanowells; You et al. Chem. Biol. 4:969-975. 1997) is shown. (b) 25× magnification of the blot shown in (a). The indicated number of cells (Mv1Lu) were seeded in […] volumes in duplicate in 1% mink medium with or without 10 μM BrdU or 400 pM TGF-β, as indicated. The cells were cultured for 24 hours at 37° C. with 5% CO2 and then a 6144 well cytoblot was performed (see protocols). (c) Two separate nanowell plates (You et al. Chem. Biol. 4:969-975. 1997) were seeded with 20,000 Mv1Lu cells/mL in 1% mink medium with or without 500 pM TGF-13. After 26 hours at 37° C. with 5% CO2 BrdU was added to a final concentration of 10 μM. The cells were incubated for an additional 18 hours at 37° C. with 5% CO2 and then a 6144 well cytoblot was performed (see protocols).
The anti-BrdU cytoblot assay was then tested for its ability to detect the inhibition of BrdU uptake in a plate containing approximately 6000 arrayed “nanowells” (You et al. Chem Biol 4:969-975. 1997. Incorporated herein by reference). […] The following protocol provides experimental detail.
The reagents to be tested were prepared in 1536 well plates with one or more test compound per well. […]

The text below walks through data of patent publication US20080311589A1, “METHOD OF HIGH-THROUGHPUT SCREENING OF MOLECULES AND COMPOUNDS FOR THEIR EFFECTS ON BIOLOGICAL AND CHEMICAL PROCESSES” (priority 1999, published 2008).

Regarding “TGF-β: anti-mitogen transforming growth factor β, multifunctional polypeptide signaling factor”, in test [1], the “activation of transiently versus stably transfected TGFβ-responsive reporter” value is recorded as “equally effective”. In addition, the BrdU incorporation result in test [2] is “prevented BrdU incorporation”.
